Values quoted from earlier work, collected in US7101912B2, “Carbidopa prodrugs and derivatives, and compositions and uses thereof” (XenoPort, Inc., priority 2002, dated 2006).

Experiments:
[1] = rats

Compound	absorption following rectal administration [1]	conversion of the prodrug to levodopa in rat plasma (following absorption from an intestinal loop)	levels of levodopa (rat plasma following absorption from an intestinal loop)
C[C@@](Cc1ccc(O)c(O)c1)(NN)C(=O)O [carbidopa]	poor		
CC(C)(C)C(=O)Oc1ccc(C[C@H](N)C(=O)O)cc1O [NB-355]		slow	low
